Target: T1, ALK5 kinase (Homo sapiens, UniProt P36897)
T1 construct: GST; purchased Thermo Fisher Scientific Solutions
T1 sequence (P36897 34-503): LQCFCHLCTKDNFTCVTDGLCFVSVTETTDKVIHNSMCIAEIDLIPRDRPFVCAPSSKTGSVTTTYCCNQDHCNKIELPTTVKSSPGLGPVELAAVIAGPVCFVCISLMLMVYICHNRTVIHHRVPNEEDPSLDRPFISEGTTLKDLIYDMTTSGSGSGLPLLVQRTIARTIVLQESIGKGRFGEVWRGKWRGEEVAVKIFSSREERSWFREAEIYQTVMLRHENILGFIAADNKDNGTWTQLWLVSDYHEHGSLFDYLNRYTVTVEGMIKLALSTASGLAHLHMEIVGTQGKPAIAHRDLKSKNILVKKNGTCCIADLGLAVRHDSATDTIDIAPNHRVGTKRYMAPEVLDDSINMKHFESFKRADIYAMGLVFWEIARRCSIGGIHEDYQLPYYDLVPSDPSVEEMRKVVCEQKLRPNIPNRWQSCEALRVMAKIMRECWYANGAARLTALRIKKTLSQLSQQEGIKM
Assay: Activity inhibition test on ALK5 enzyme (LanthaScreen Eu binding kinase assay)
Details: kinase tracer 178, 60 minutes at room temperature
How it was run: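 TR-FRET tracer-displacement format with final 5 nM ALK5, 2 nM Eu-GST antibody and 10 nM kinase tracer 178. Compound dilution series ran 1 μM–0.0001 μM, incubated 60 min at room temperature with stirring. Fluorescence was read ([…]), and IC50 came from percent inhibition versus control.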

Row | Compound | IC50 [nM]
1 | Cc1cccc(-n2nc(C(=O)Nc3ccc(S(C)(=O)=O)cc3)cc2-c2ccnc3ccccc23)n1 [Example 211, 1-(6-methylpyridin-2-yl)-N-(4-(methylsulfonyl)phenyl)-5-(quinolin-4-yl)-1H-pyrazole-3-carboxyamide] | < 10
2 | Cc1cccc(-n2nc(C(=O)Nc3ccc(Cl)nc3)cc2-c2ccnc3ccccc23)n1 [Example 213, N-(6-chloropyridin-3-yl)-1-(6-methylpyridin-2-yl)-5-(quinolin-4-yl)-1H-pyrazole-3-carboxyamide] | 23
3 | Cc1cccc(-n2nc(C(=O)Nc3ccc4c(c3)OCO4)cc2-c2ccnc3ccccc23)n1 [Example 214, N-(benzo[d][1,3]dioxol-5-yl)-1-(6-methylpyridin-2-yl)-5-(quinolin-4-yl)-1H-pyrazole-3-carboxyamide] | 30
4 | COc1ccc(NC(=O)c2cc(-c3ccnc4ccccc34)n(-c3cccc(C)n3)n2)c(F)c1 [Example 216, N-(2-fluoro-4-methoxyphenyl)-1-(6-methylpyridin-2-yl)-5-(quinolin-4-yl)-1H-pyrazole-3-carboxyamide] | ~100
5 | COCCOc1ccc(NC(=O)c2cc(-c3ccnc4ccccc34)n(-c3cccc(C)n3)n2)cc1 [Example 217, N-(4-(2-methoxyethoxy)phenyl)-1-(6-methylpyridin-2-yl)-5-(quinolin-4-yl)-1H-pyrazole-3-carboxyamide] | 18
6 | Cc1cccc(-n2nc(C(=O)Nc3ccc(S(=O)(=O)C4CC4)cc3)cc2-c2ccc3nonc3c2)n1 [Example 218, 5-(benzo[c][1,2,5]oxadiazol-5-yl)-N-(4-(cyclopropylsulfonyl)phenyl)-1-(6-methylpyridin-2-yl)-1H-pyrazole-3-carboxyamide] | 10 to 100
7 | Cc1cccc(-n2nc(C(=O)Nc3ccccc3F)cc2-c2ccc3ncoc3c2)n1 [Example 219, 5-(benzo[d]oxazol-6-yl)-N-(2-fluorophenyl)-1-(6-methylpyridin-2-yl)-1H-pyrazole-3-carboxyamide] | 27
8 | Cc1cccc(-n2nc(C(=O)Nc3ccc(S(=O)(=O)C4CC4)cc3)cc2-c2ccc3ncoc3c2)n1 [Example 220] | 3.2
9 | Cc1cccc(-n2nc(C(=O)Nc3cn[nH]c3)cc2-c2ccc(F)c(-c3cnn(CCO)c3)c2)n1 [Example 222, N-(1H-pyrazol-4-yl)-5-(4-fluoro-3-(1-(2-hydroxyethyl)-1H-pyrazol-4-yl)phenyl)-1-(6-methylpyridin-2-yl)-1H-pyrazole-3-carboxyamide] | 1
10 | Cc1cccc(-n2nc(C(=O)Nc3ccc(S(C)(=O)=O)cc3)cc2-c2ccc(F)c(-c3cnn(CCO)c3)c2)n1 [Example 226, N-(4-(methylsulfonyl)phenyl)-5-(4-fluoro-3-(1-(2-hydroxyethyl)-1H-pyrazol-4-yl)phenyl)-1-(6-methylpyridin-2-yl)-1H-pyrazole-3-carboxyamide] | 4.7

More lines, now with the values ahead:

Row | IC50 [nM] | Compound
11 | 10 to 100 | COc1ccc(NC(=O)c2cc(-c3ccnc4ccccc34)n(-c3cccc(C)n3)n2)cc1 [Example 210, N-(4-methoxyphenyl)-1-(6-methylpyridin-2-yl)-5-(quinolin-4-yl)-1H-pyrazole-3-carboxyamide]
12 | 36 | COc1ccc(NC(=O)c2cc(-c3ccnc4ccccc34)n(-c3cccc(C)n3)n2)cn1 [Example 212, N-(6-methoxypyridin-3-yl)-1-(6-methylpyridin-2-yl)-5-(quinolin-4-yl)-1H-pyrazole-3-carboxyamide]
13 | 91 | COc1ccc(NC(=O)c2cc(-c3ccnc4ccccc34)n(-c3cccc(C)n3)n2)cc1F [Example 215, N-(3-fluoro-4-methoxyphenyl)-1-(6-methylpyridin-2-yl)-5-(quinolin-4-yl)-1H-pyrazole-3-carboxyamide]
14 | 4.3 | Cc1cccc(-n2nc(C(=O)NC3CC3)cc2-c2ccc(F)c(-c3cnn(CCO)c3)c2)n1 [Example 221, N-cyclopropyl-5-(4-fluoro-3-(1-(2-hydroxyethyl)-1H-pyrazol-4-yl)phenyl)-1-(6-methylpyridin-2-yl)-1H-pyrazole-3-carboxyamide]
15 | 2.8 | Cc1cccc(-n2nc(C(=O)Nc3cnn(C)c3)cc2-c2ccc(F)c(-c3cnn(CCO)c3)c2)n1 [Example 223, N-(1-methyl-1H-pyrazol-4-yl)-5-(4-fluoro-3-(1-(2-hydroxyethyl)-1H-pyrazol-4-yl)phenyl)-1-(6-methylpyridin-2-yl)-1H-pyrazole-3-carboxyamide]
16 | 3.1 | Cc1cccc(-n2nc(C(=O)Nc3cnn(S(C)(=O)=O)c3)cc2-c2ccc(F)c(-c3cnn(CCO)c3)c2)n1 [Example 224, N-(1-(methylsulfonyl)-1H-pyrazol-4-yl)-5-(4-fluoro-3-(1-(2-hydroxyethyl)-1H-pyrazol-4-yl)phenyl)-1-(6-methylpyridin-2-yl)-1H-pyrazole-3-carboxyamide]
17 | 33 | Cc1cccc(-n2nc(C(=O)Nc3ccc(Cl)cc3)cc2-c2ccc(F)c(-c3cnn(CCO)c3)c2)n1 [Example 225, N-(4-chlorophenyl)-5-(4-fluoro-3-(1-(2-hydroxyethyl)-1H-pyrazol-4-yl)phenyl)-1-(6-methylpyridin-2-yl)-1H-pyrazole-3-carboxyamide]
18 | ~100 | Cc1cccc(-n2nc(C(=O)Nc3ccccc3F)cc2-c2cc3cnccc3s2)c1 [Example 227, N-(2-fluorophenyl)-5-(thieno[3,2,c]pyridin-2-yl)-1-(m-tolyl)-1H-pyrazole-3-carboxyamide]

— patent US10954232B2, “Pyrazole derivative as ALK5 inhibitor and uses thereof” (HANMI PHARMACEUTICAL CO., LTD., priority 2016, dated 2021)
